From publication PMC10837484 (Clinical and Translational Science, 2024)

Experiments:
[1] = target: T1, LTA4H (Homo sapiens, UniProt P09960); settings: cited from earlier work
T1 sequence (P09960 1-611): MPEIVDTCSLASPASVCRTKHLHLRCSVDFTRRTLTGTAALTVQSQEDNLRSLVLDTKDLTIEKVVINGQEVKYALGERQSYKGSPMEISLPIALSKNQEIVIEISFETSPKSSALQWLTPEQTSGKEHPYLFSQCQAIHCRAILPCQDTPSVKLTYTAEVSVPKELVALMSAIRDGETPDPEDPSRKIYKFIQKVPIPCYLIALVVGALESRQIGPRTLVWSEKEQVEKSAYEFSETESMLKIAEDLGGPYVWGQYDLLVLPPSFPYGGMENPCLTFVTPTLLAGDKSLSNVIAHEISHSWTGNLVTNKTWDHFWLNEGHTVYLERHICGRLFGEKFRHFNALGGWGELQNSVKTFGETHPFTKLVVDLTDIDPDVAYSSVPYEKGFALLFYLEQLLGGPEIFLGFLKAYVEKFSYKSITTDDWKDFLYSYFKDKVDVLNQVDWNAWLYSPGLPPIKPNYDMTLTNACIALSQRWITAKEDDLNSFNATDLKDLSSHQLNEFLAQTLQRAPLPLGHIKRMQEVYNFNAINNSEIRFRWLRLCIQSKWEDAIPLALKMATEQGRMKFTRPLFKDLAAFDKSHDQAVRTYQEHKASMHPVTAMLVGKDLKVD

[2] = tested on: LTA4H; settings: cited from earlier work
[3] = cited from earlier work
[4] = target: T1, LTA4H; settings: patients with asthma; cited from earlier work
[5] = Dog PK/PD study: LYS006 in blood and plasma; assay type: in vivo, male beagle dogs
[6] = First-in-human study: LYS006 concentrations in plasma and blood; assay type: in vivo; settings: for concentration at 24 h: blood level, 24 h timepoint
[7] = in vivo; settings: male, Wistar, rat, 3 mg/kg
[8] = cited from earlier work; remark: listed apart in the source
[9] = First-in-human study: safety and tolerability; assay type: in vivo
[10] = 0.5 mg/kg p.o. q.d., after fifth dose
[11] = SAD part, LYS006 treated participants

## O=C(O)CCCN1CCC[C@H]1COc1ccc(Oc2ccc(Cl)cc2)cc1 [DG‐051]
[1]; after 7 days of once daily treatment
  LTB4 reduction in ex vivo stimulated blood: up to 70%
[2]
  in vitro potency relative to other clinical LTA4H inhibitors: lowest potency

## CC(c1cc2ccccc2s1)N(O)C(N)=O (stereo not shown) [zileuton]
[3]
  effect on liver transaminases: elevates liver transaminases

## CC(=O)NC1C[C@H]2CC[C@@H](C1)N2Cc1ccc(Oc2nc3ncccc3s2)cc1 (stereo partly shown) [JNJ‐40929837]
[1]; over a 24 h period at doses of 100 mg
  reduction of LTB4 levels: greater than 95%
[2]
  potency in in vitro cellular assays: highly potent
[4]
  reduction in sputum LTB4: 92%

## N[C@@H](CC(=O)O)Cn1nnc(-c2ccc(Oc3ncc(Cl)cc3F)cc2)n1 [LYS006]
[5]; [10]
  peak blood concentration: 55 ng/mL
  peak plasma concentration: 5.5 ng/mL
[5]; 3 mg/kg p.o., first dose, 1 h
  peak blood level: 71 ng/mL
  peak plasma level: 36 ng/mL
[5]; male, beagle, in vivo, po, 0.5 mg/kg, plasma Ctrough, 0.5 mg/kg p.o., first dose
  concentration at 24 h: ~3 ng/mL
[6]; MAD, 15 mg q.d.
  trough blood level: ~ 35 ng/mL
  trough plasma level: ~ 2 ng/mL
[6]; MAD, after last dose on day 12
  blood exposure after end-of-treatment: 30 to 40 ng/mL
  plasma level after end-of-treatment: 1 to 2 ng/mL
[6]; both, human, in vivo, 5 mg, SAD
  concentration at 24 h: 29.4 ng/mL
[6]; both, human, in vivo, 70 mg, SAD
  concentration at 24 h: 37.1 ng/mL
[6]; both, human, in vivo, blood concentration, SAD, 12 h after administration
  concentration at 12 h: 30 to 50 ng/mL
[7]
  concentration at 4 h: > 1000 ng/mL
[8]; clinical PK
  time to maximum plasma concentration (Tmax): 1 to 2 h
[8]; human
  parent compound excreted into the urine: 90%
[9]; FE cohorts, 10 mg, N = 12
  AE severity: Mild: 8 (66.6) n (%)
  AE severity: Moderate: 0 (0) n (%)
  AE severity: Severe: 0 (0) n (%)
  AEs leading to discontinuation: 0 (0) n (%)
  Abdominal discomfort or pain: 2 (16.7) n (%)
  Amylase increase: 0 (0) n (%)
  Back pain: 0 (0) n (%)
  Blood CPK elevation: 0 (0) n (%)
  Breast pain: 0 (0) n (%)
  Deaths: 0 (0) n (%)
  Diarrhea: 0 (0) n (%)
  Dizziness: 0 (0) n (%)
  Dry skin: 2 (16.7) n (%)
  Feeling cold: 2 (16.7) n (%)
  Headache: 1 (8.3) n (%)
  Lipase elevation: 0 (0) n (%)
  Nausea: 0 (0) n (%)
  Pruritus: 0 (0) n (%)
  SAEs: 0 (0) n (%)
  Study drug-related AEs: 0 (0) n (%)
  Viral respiratory infection: 3 (25) n (%)
[9]; FE part, 10 mg
  Feeling cold: 16.7%
  abdominal pain: 16.7%
  dry skin: 16.7%
  viral upper respiratory tract infection: 25.0%
[9]; FE part, 10 mg fasted or fed, 12 patients
  participants with at least one AE: 66.7%
[9]; MAD cohorts, all doses, N = 30
  AE severity: Mild: 22 (73.3) n (%)
  AE severity: Moderate: 4 (13.3) n (%)
  AE severity: Severe: 4 (13.3) n (%)
  AEs leading to discontinuation: 0 (0) n (%)
  Abdominal discomfort or pain: 2 (6.7) n (%)
  Amylase increase: 2 (6.7) n (%)
  Back pain: 2 (6.7) n (%)
  Blood CPK elevation: 5 (16.7) n (%)
  Breast pain: 0 (0) n (%)
  Deaths: 0 (0) n (%)
  Diarrhea: 1 (3.3) n (%)
  Dizziness: 2 (6.7) n (%)
  Dry skin: 0 (0) n (%)
  Feeling cold: 0 (0) n (%)
  Headache: 8 (26.7) n (%)
  Lipase elevation: 3 (10) n (%)
  Nausea: 2 (6.7) n (%)
  Pruritus: 0 (0) n (%)
  SAEs: 0 (0) n (%)
  Study drug-related AEs: 5 (16.7) n (%)
  Subjects with at least one AE: 23 (76.7) n (%)
  Viral respiratory infection: 2 (6.7) n (%)
[9]; MAD part, 30 LYS006-treated participants
  participants with AEs: 76.7%
[9]; MAD part, LYS006-treated participants
  AEs of severe intensity (grade 3): 13.3%
[9]; MAD part, LYS006 group
  Headache: 26.7%
  Lipase elevation: 10%
  creatine phosphokinase (CPK) elevation: 16.7%
[9]; MAD, LYS006 group, transient
  number of AEs of severe intensity related to CPK elevations: two
  number of lipase elevations of severe intensity (grade 3): Two
[9]; SAD cohorts, all doses, N = 51
  AE severity: Mild: 18 (35.3) n (%)
  AE severity: Moderate: 2 (3.9) n (%)
  AE severity: Severe: 1 (2) n (%)
  AEs leading to discontinuation: 0 (0) n (%)
  Abdominal discomfort or pain: 4 (7.8) n (%)
  Amylase increase: 0 (0) n (%)
  Back pain: 1 (2) n (%)
  Blood CPK elevation: 0 (0) n (%)
  Breast pain: 0 (0) n (%)
  Deaths: 0 (0) n (%)
  Diarrhea: 2 (3.9) n (%)
  Dizziness: 1 (2) n (%)
  Dry skin: 0 (0) n (%)
  Feeling cold: 0 (0) n (%)
  Headache: 3 (5.9) n (%)
  Lipase elevation: 2 (3.9) n (%)
  Nausea: 0 (0) n (%)
  Pruritus: 2 (3.9) n (%)
  SAEs: 0 (0) n (%)
  Study drug-related AEs: 4 (7.8) n (%)
  Subjects with at least one AE: 19 (37.3) n (%)
  Viral respiratory infection: 0 (0) n (%)
[9]; SAD part, 51 LYS006 treated participants
  participants with AEs: 37.3%
[9]; [11]
  Abdominal discomfort or pain: 7.8%
  Diarrhea: 3.9%
  Headache: 5.9%
[9]; SAD, FE and MAD parts, all study participants
  tolerability: well‐tolerated
[9]; healthy participants, up to 80 mg b.i.d.
  dose-limiting toxicity: No dose‐limiting toxicity
[9]; one participant, single dose 5 mg, day 8 after dosing, no clinical sign
  lipase increase, only AE of severe intensity (grade 3) in SAD: ≥ 2 × ULN

## O=C(O)c1ccc(CN2C[C@@H]3C[C@H]2CN3Cc2ccc(Oc3ccc(-c4ncco4)cc3)cc2)cc1 [acebilustat]
[1]; highest tested dose 200 mg q.d.
  maximum PD effect, reduction of LTB4 at peak in ex vivo stimulated blood: 89%
